In patent US9695155B2, “Herbicidal substituted pyrimidinyloxy benzene compounds” (E. I. DU PONT DE NEMOURS AND COMPANY, priority 2013, dated 2017):

How the values were obtained:
[1] = test system: ragweed; assay: Test A preemergence; format: in vivo, Ambrosia elatior
Method in brief: (§1)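 Greenhouse pot test, loam/sand soil. Formulation: non-phytotoxic solvent mix plus surfactant. Pre: directed spray onto soil after sowing. Post: plants at 1–2 leaf, 2–10 cm. Rated visually vs untreated controls at ~10 d, 0 (no effect) to 100 (complete control).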

[2] = test system: Italian ryegrass; assay: Test A preemergence; format: in vivo, Lolium multiflorum
Method in brief: as §1

[3] = test system: Italian ryegrass; assay: Test A postemergence; format: in vivo, Lolium multiflorum; settings: 0 to 100 scale, 0 no effect, 100 complete control
Method in brief: as §1

[4] = test system: giant foxtail; assay: Test A postemergence; format: in vivo, Setaria faberii; settings: 0 to 100 scale, 0 no effect, 100 complete control
Method in brief: as §1

[5] = test system: corn; assay: Test A postemergence; format: in vivo, Zea mays; settings: 0 to 100 scale, 0 no effect, 100 complete control
Method in brief: as §1

[6] = test system: blackgrass; assay: Test A postemergence; format: in vivo, Alopecurus myosuroides; settings: 0 to 100 scale, 0 no effect, 100 complete control
Method in brief: as §1

[7] = test system: galium; assay: Test A postemergence; format: in vivo, Galium aparine; settings: 0 to 100 scale, 0 no effect, 100 complete control
Method in brief: as §1

[8] = test system: large (Lg) crabgrass; assay: Test C preemergence; format: in vivo, Digitaria sanguinalis; settings: for Crabgrass, Large plant response rating: preemergence
Method in brief: (§2)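 Injury was assessed visually against controls 13 to 15 days after application, with 0 meaning no effect and 100 full control; missing entries are shown as a dash. Preemergence sprays hit seeded loam–sand soil, postemergence sprays hit 1- to 4-leaf plants.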

[9] = test system: yellow nutsedge; assay: Test C preemergence; format: in vivo, Cyperus esculentus; settings: for Nutsedge, Yellow plant response rating: preemergence
Method in brief: as §2

[10] = test system: pigweed; assay: Test C preemergence; format: in vivo, Amaranthus retroflexus; settings: for Pigweed plant response rating: preemergence
Method in brief: as §2

[11] = test system: waterhemp; assay: Test C preemergence; format: in vivo, Amaranthus rudis; settings: for Waterhemp plant response rating: preemergence
Method in brief: as §2

[12] = test system: Italian ryegrass; assay: Test C postemergence; format: in vivo, Lolium multiflorum
Method in brief: as §2

[13] = test system: pigweed; assay: Test C postemergence; format: in vivo, Amaranthus retroflexus
Method in brief: as §2

[14] = test system: kochia; assay: Test C postemergence; format: in vivo, Kochia scoparia
Method in brief: as §2

[15] = test system: velvetleaf; assay: Test C postemergence; format: in vivo, Abutilon theophrasti
Method in brief: as §2

[16] = test system: chickweed; assay: Test C postemergence; format: in vivo, Stellaria media
Method in brief: as §2

[17] = 31 g ai/ha, 0 to 100 scale where 0 is no effect and 100 is complete control, visual, approximately 10 days
[18] = 16 g ai/ha, scale 0 to 100 (0 no effect, 100 complete control)
[19] = 125 g ai/ha, scale 0 (no effect) to 100 (complete control)
[20] = Preemergence, 62 g ai/ha, scale 0 to 100, 0 no effect, 100 complete control
[21] = 16 g ai/ha, postemergence, 0 is no effect, 100 is complete control
[22] = 31 g ai/ha, postemergence, visual rating, scale 0 to 100 (0 no effect, 100 complete control), 13 to 15 days
[23] = 125 g ai/ha, postemergence, visual rating, scale 0 to 100 (0 no effect, 100 complete control)
[24] = Postemergence, 62 g ai/ha, scale 0 to 100 (0 no effect, 100 complete control), 13 to 15 days

## FC(F)Oc1cnn(-c2c(Cl)cccc2Oc2ncc(Cl)cn2)c1 [Compound 258]
[1]; [17]
  Plant response rating, Ragweed: 0
[1]; 125 g ai/ha
  Ragweed plant response rating (0 to 100 scale): 40
[2]; [17]
  Plant response rating, Ryegrass, Italian: 0
[2]; 125 g ai/ha
  Ryegrass, Italian plant response rating (0 to 100 scale): 10
[3]; 31 g ai/ha
  Plant response rating, Ryegrass, Italian: 0
[3]; 125 g ai/ha
  Plant response rating, Ryegrass, Italian: 20
[4]; 31 g ai/ha
  Plant response rating, Foxtail, Giant: 20
[4]; 125 g ai/ha
  Plant response rating, Foxtail, Giant: 70
[5]; 31 g ai/ha
  Plant response rating, Corn: 10
[5]; 125 g ai/ha
  Plant response rating, Corn: 40
[6]; 31 g ai/ha
  Plant response rating, Blackgrass: 20
[6]; 125 g ai/ha
  Plant response rating, Blackgrass: 50
[7]; 31 g ai/ha
  Plant response rating, Galium: 70
[7]; 125 g ai/ha
  Plant response rating, Galium: 90
[8]; [18]
  Crabgrass, Large plant response rating: 100
[8]; [19]
  Crabgrass, Large plant response rating: 100
[8]; [20]
  Plant response rating, Crabgrass, Large: 100
[9]; [18]
  Nutsedge, Yellow plant response rating: 5
[9]; [19]
  Nutsedge, Yellow plant response rating: 100
[9]; [20]
  Plant response rating, Nutsedge, Yellow: 95
[10]; [18]
  Pigweed plant response rating: 100
[10]; [19]
  Pigweed plant response rating: 100
[10]; [20]
  Plant response rating, Pigweed: 100
[11]; [18]
  Waterhemp plant response rating: 100
[11]; [19]
  Waterhemp plant response rating: 100
[11]; [20]
  Plant response rating, Waterhemp: 98
[12]; [21]
  Plant response rating (0 to 100), Ryegrass, Italian: 0
[12]; [22]
  Ryegrass, Italian plant response rating: 0
[12]; [23]
  Plant response rating, Ryegrass, Italian: 30
[12]; [24]
  Plant response rating, Ryegrass, Italian: 0
[13]; [21]
  Plant response rating (0 to 100), Pigweed: 75
[13]; [22]
  Pigweed plant response rating: 85
[13]; [23]
  Plant response rating, Pigweed: 90
[13]; [24]
  Plant response rating, Pigweed: 85
[14]; [21]
  Plant response rating (0 to 100), Kochia: 90
[14]; [22]
  Kochia plant response rating: 95
[14]; [23]
  Plant response rating, Kochia: 100
[14]; [24]
  Plant response rating, Kochia: 100
[15]; [21]
  Plant response rating (0 to 100), Velvetleaf: 55
[15]; [22]
  Velvetleaf plant response rating: 65
[15]; [23]
  Plant response rating, Velvetleaf: 80
[15]; [24]
  Plant response rating, Velvetleaf: 75
[16]; [21]
  Plant response rating (0 to 100), Chickweed: 50
[16]; [22]
  Chickweed plant response rating: 50
[16]; [23]
  Plant response rating, Chickweed: 95
[16]; [24]
  Plant response rating, Chickweed: 90
